Data set [1] concerns AC5. Briefly: Inhibition of recombinant AC5 (baculovirus overexpression system). The class given is biochemical. As to conditions: for Selectivity ratio for AC5, AC5/AC2: ratio of IC50 for AC5 to that for AC2; for Selectivity ratio for AC5, AC5/AC3: ratio of IC50 for AC5 to that for AC3.
Text: (§2) Several drugs with the adenine-like structure for AC5 inhibitors were screened using recombinant proteins of several AC subtypes with a baculovirus overexpression system.
Data set [2] addresses T1, AC3 (Rattus norvegicus, UniProt P21932).
T1 construct: made in house; host or cells: insect cells (baculovirus)
T1 sequence (P21932 1-1144): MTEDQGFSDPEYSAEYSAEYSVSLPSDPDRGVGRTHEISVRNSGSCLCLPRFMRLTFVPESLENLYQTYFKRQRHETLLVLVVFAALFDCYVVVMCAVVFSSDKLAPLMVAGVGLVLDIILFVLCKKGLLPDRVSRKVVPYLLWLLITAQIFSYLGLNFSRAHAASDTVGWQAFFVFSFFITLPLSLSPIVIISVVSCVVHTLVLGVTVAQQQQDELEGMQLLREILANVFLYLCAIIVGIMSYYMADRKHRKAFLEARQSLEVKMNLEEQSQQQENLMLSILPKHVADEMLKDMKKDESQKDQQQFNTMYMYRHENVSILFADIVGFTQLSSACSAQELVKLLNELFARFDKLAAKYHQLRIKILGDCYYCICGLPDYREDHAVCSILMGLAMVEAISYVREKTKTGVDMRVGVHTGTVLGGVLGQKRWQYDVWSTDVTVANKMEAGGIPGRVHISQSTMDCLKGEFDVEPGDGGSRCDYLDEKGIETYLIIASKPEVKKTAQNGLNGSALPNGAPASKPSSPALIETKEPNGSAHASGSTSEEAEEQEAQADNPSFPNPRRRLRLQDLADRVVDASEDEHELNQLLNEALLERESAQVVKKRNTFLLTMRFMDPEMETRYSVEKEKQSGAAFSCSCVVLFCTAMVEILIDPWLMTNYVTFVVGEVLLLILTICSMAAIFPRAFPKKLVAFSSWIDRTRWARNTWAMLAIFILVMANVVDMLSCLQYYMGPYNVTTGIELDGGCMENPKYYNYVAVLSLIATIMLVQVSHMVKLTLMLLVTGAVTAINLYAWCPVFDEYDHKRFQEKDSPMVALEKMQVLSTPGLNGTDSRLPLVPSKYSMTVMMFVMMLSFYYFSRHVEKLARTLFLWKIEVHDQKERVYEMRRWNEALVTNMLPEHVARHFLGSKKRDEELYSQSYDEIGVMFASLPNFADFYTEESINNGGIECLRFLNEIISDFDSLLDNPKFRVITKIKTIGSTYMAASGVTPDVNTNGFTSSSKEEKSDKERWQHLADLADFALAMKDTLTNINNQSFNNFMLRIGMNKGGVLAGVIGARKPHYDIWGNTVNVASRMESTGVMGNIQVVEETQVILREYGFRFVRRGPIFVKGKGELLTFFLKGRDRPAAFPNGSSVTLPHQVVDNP
Briefly: Inhibition of recombinant AC3 (baculovirus overexpression system). In kind it is biochemical. The note with it: for inhibition of AC3: in the presence of Gs-α/GTPαS/forskolin.
Text: as §2

Data set [3] concerns cardiac myocytes. Briefly: ISO-induced cAMP accumulation in cardiac myocytes. The class given is cell-based, mouse. From the text:
Decreases in cAMP in AC5 KO were observed only at high ISO concentrations. […] (Toya et al., J Mol Cell Cardiol., 1998; 30(1):97-108)

In data set [4] the test system is cultured cardiac myocytes. The data set is described as follows: ISO-induced apoptosis and contraction in cultured cardiac myocytes. In kind it is cell-based.
In data set [5] the target is AC5 (UniProt P30803). Briefly: Inhibition of recombinant AC5 (baculovirus overexpression system). Further details: IC50 AC5. The class given is biochemical.
Text: as §2
Data set [6] deals with AC2 (UniProt P26769). Briefly: Inhibition of recombinant AC2 (baculovirus overexpression system). As to conditions: for IC50: read-out: IC50 AC2, recombinant AC proteins, Table 1; for inhibition of AC2: in the presence of Gs-α/GTPαS/forskolin.
Text: as §2
The test system of data set [7] is AC5. Briefly: Forskolin-stimulated 32P-cAMP production in heart membranes from AC5 Tg mice. In kind it is biochemical, mouse. Further details: dose or concentration left out as unconfirmed. The note with it: n=4.
Experimental: To measure AC5 inhibition, in addition to membrane preparations from mouse heart, membrane preparations from mouse striatum were used because AC5 provides about 80% of total AC activity in the striatum, mimicking purified AC5. cAMP was measured with 50 mM forskolin (FSK) in the presence or absence of 10 mM of the indicated drugs).
Data set [8] has as its system AC6. The data set is described as follows: Forskolin-stimulated 32P-cAMP production in heart membranes from AC6 Tg mice. The class given is biochemical, mouse. As to conditions: forskolin 50 mM, n=4. The protocol:
(§1) Hearts were dissected from the mice and membrane preparations were prepared as described previously. Protein concentration was measured by the method of Bradford using bovine serum albumin as a standard. AC activity was measured as described previously. AC activity was linear within the incubation time up to 30 min. In order to harvest hearts for tissue cAMP content measurements, mice were allowed to acclimate to the surroundings in the laboratory for an hour before sacrifice. Freshly isolated hearts were briefly immersed in liquid nitrogen. The tissue was homogenized in ice-cold 6% percholic acid, and cAMP was extracted as described before. The concentration of cAMP was determined with an RIA kit (PerkinElmer Life Sciences, Boston, Mass., USA).

For data set [9], the system named is AC activity in the heart of dogs. Briefly: Forskolin-induced haemodynamic response in instrumented dog. In kind it is in vivo. As to conditions: AraAde 15 mg/kg intravenously, forskolin 50 nmol/kg. From the text: An adult mongrel dog (16.5 kg, male) was surgically instrumented, for measurements of LV pressure (P), LV dP/dt, aortic pressure, ascending aortic blood flow (stroke volume) and mean aortic blood flow (cardiac output). (a) The response to intravenous infusion of Forskolin (50 nmol/kg) is shown on the phasic waveforms on the left. LV dP/dt, aortic flow (stroke volume) and mean aortic flow (cardiac output) are increased.

Data set [10] has as its system high-fat-diet-fed C57BL/6 mice. Briefly: High-fat-diet-fed C57BL/6 mice treated with AraAde. In kind it is in vivo, mouse. More on the design: insulin resistance, HOMA IR: unit not given here.
Data set [11] concerns C57Bl/6 mice with chronic ISO infusion. Briefly: Chronic ISO infusion model. The class given is in vivo, mouse. The text has this: Mice were then subjected to echocardiography (LVEF) (A); and tissue was harvested for pathological examination of myocardial apoptosis (by TUNEL) (B); and fibrosis (by PASR) (C). n=4-9.*p<0.05 vs. all other groups. […] Thus, this AC5 inhibitor is protective against the development of ISO-induced cardiomyopathy.

The nature of data set [12]: Tolerability of subcutaneous mini-osmotic pump infusion. The class given is in vivo. The note with it: infused subcutaneously, up to 3 months.
The subject of data set [13] is myocardial infarction. The data set is described as follows: Survival after myocardial infarction. As to conditions: in vivo.
Data set [14] has as its system brain function. Briefly: Bradykinesia and locomotor activity. As to conditions: as observed in AC5 KO.
Data set [15] deals with AC5 (UniProt P30803). Briefly: Inhibition of recombinant AC5 (baculovirus overexpression system). In kind it is biochemical. Further details: IC50 for AC5; other: in the presence of Gs-α/GTPαS/forskolin. As to conditions: in the presence of Gs-α/GTPαS/forskolin.
Text: as §2
Data set [16] relates to AC activity in heart membranes. The data set is described as follows: ISO-stimulated AC activity in heart membranes of WT and AC5KO mice. As to conditions: 10 μM. The class given is biochemical, mouse. The method, then:
as §1
cAMP production in membranes from the hearts of AC5KO and WT at 6 months of age was examined. The steady state AC activity was determined as the maximal capacity of cAMP production in the presence of ISO (100 μM ISO+100 μM GTP), GTPγS (100 μM) or forskolin (100 μM). […] Basal cardiac function was not decreased, but the response to ISO and muscarinic inhibition of ISO were attenuated.

Data set [17] relates to AC5. As to conditions: cited from earlier work.
Data set [18] deals with cardiac myocytes. The note with it: cited from earlier work.
Data set [19] relates to AC2. As to conditions: previously noted; cited from earlier work.
For data set [20] the following is noted: occur in roughly half of administered patients; cited from earlier work.
Where [21] appears, read: recombinant AC proteins, Table 1, read-out: IC50 AC5.
The mark [22] stands for this setting: recombinant AC proteins, Table 1, read-out: IC50 AC3.

Structures are written as SMILES. Entries after “also recorded” stand apart in the source; their conditions may differ. Read-outs that look alike come from different tables or passages of the source.

The values that follow come from patent US8440640B2, “Methods and compositions for treating obesity and related disorders” (University of Medicine and Dentistry of New Jersey, priority 2008, dated 2013).

On to `C[C@H]1O[C@@H](n2cnc3c(N)ncnc32)C[C@@H]1O` [2′5′-dd-Ado, 2′5′ dideoxyadenosine], for which, in data set [1], the “Selectivity ratio for AC5, AC5/AC2” value came to 0.00067 and the “Selectivity ratio for AC5, AC5/AC3” value is listed as 0.0063. In data set [2], the IC50 stood at 253 µM. For the same molecule, the “maximum level of suppression of ISO-induced cAMP accumulation” value in [3] is “around 30%”. Further, in [4], the “ISO induced apoptosis in cultured cardiac myocytes” value is listed as “prevented” and the “contraction in cultured cardiac myocytes” value was “without impairing contraction”. Besides, the IC50 in data set [5] (setting [21]) was found to be 1.6 µM. The IC50 in data set [6] came to 2380 µM.

In the case of `Nc1ncnc2c1ncn2[C@H]1C[C@H](OP(=O)(O)O)[C@@H](CO)O1` [2′-d-3′-AMP], in data set [5] (read-out: IC50 for AC5), the IC50 is 0.82 µM.

Turning to `Nc1ncnc2c1ncn2[C@@H]1O[C@H](CO)[C@@H](OP(=O)(O)O)[C@H]1O` [3′-AMP], in data set [5] (read-out: IC50 for AC5), the half-maximal inhibitory concentration (IC50) turned out to be 14.6 µM.

As for `Nc1ncnc2c1ncn2[C@@H]1O[C@H](CO)[C@@H](O)[C@@H]1O` [AraAde, 9-β-D-arabinofuranosyladenine], the IC50 in [2] (setting [22]) came out at 375 µM; in data set [5] (setting [21]) it was 9.8 µM; in data set [6], 7200 µM. Besides, the “forskolin induced cAMP production, hearts from AC5 Tg” value in data set [7] is “dramatically decreased”. In addition, the “forskolin induced cAMP production, hearts from AC6 Tg” value in [8] is on record as “not”. Further, the “maximum level of suppression of ISO-induced cAMP accumulation” value in [3] was “around 30%”. Further, the “ISO induced apoptosis in cultured cardiac myocytes” value in data set [4] is “prevented”. In [9], the “forskolin-induced LV dP/dt max” value is reported as “attenuated”. Also, in [9], the forskolin-induced cardiac output entry is given as “attenuated”. The plasma insulin level result in [10] (15 mg/kg/day, high-fat diet) is “unchanged; also recorded: the elevation in insulin was minimal”. In addition, the fasting blood glucose result in data set [10] (15 mg/kg/day, high-fat diet, vs vehicle) is listed as “decreased”. The glucose tolerance result in [10] (94 days high fat diet, 42 days AraAde) is given as “improved”. Also, the “insulin resistance, HOMA IR” value in [10] (terminal blood after 6-7 hour fast, n=2) worked out at 6.38. Also, in data set [11] (AraAde 100 μg/g/day), the “ISO-induced cardiac fibrosis (PASR)” value is “significantly inhibited”. For the same molecule, the “ISO-induced myocardial apoptosis (TUNEL)” value in [11] (AraAde 100 μg/g/day) is reported as “significantly inhibited”. The “chronic ISO-induced decreases in LVEF” value in data set [11] (AraAde 20 mg/kg/day for 1 week, echocardiography) is “inhibited”. Besides, in [11] (chronic ISO 60 mg/kg/day for 1 week, AraAde 15 mg/kg/day, n=4-6), the “exercise performance, maximum treadmill speed” value is given as “rescued exercise performance”. Also, the tolerability result in [12] is given as “well tolerated”. For the same molecule, the “survival rate after myocardial infarction” value in data set [13] is given as “increased”. Also, the “bradykinesia and impaired locomotor activity” value in data set [14] is recorded as “does not induce”.

As for `Nc1ncnc2c1ncn2C1CCCC1` [CPA, 9-(cyclopentyl) adenine], the “inhibition of AC3” value in data set [2] is “only to a modest degree”. Besides, the “inhibition of AC5” value in data set [15] is listed as “potently inhibited”. Also, the “inhibition of AC2” value in data set [6] is on record as “only to a modest degree”.

Take `C[N+](C)(C)CCOC(N)=O` [Carbachol]: the “inhibition of ISO-stimulated AC activity in AC5KO” value in data set [16] (AC5KO heart membranes) is “did not inhibit”. Moreover, in data set [16] (WT heart membranes), the “decrease of ISO-stimulated AC activity in WT” value was 21+/−3.4%.

In the case of `Nc1ncc2c(n1)CC(c1ccco1)CC2=O` (stereo not drawn) [NKY80, 2-amino-7-(2-furanyl)-7,8-dihydro-5(6H)-quinazoline], the “inhibition of purified AC5 protein in vitro” value in [17] is “moderate inhibition”. Also, the “inhibition of cAMP accumulation in cultured cardiac myocytes” value in [18] is recorded as “does not inhibit”.

Take `Nc1ncnc2c1ncn2C1CCC(C(=O)NO)C1` (stereo not drawn) [PMC-6]: the “Selectivity ratio for AC5, AC5/AC2” value in data set [1] worked out at 0.0049. In [1], the “Selectivity ratio for AC5, AC5/AC3” value turned out to be 0.029. For the same molecule, the IC50 turned out to be 11.1 µM in [2] (setting [22]), 0.32 µM in data set [5] (setting [21]) and 65.3 µM in data set [6].

Regarding `Nc1ncnc2c1ncn2C1CCCO1` (stereo not drawn) [THFA, 9-(tetrahydro-2-furyl) adenine], the “selectivity ratio between AC5 and AC2” value in data set [1] is given as 130. The “inhibition of AC3” value in data set [2] is “only to a modest degree”. For the same molecule, in data set [19], the “selectivity ratio between AC6 and AC2” value was 1.8. The “inhibition of AC5” value in data set [15] was “potently inhibited”. In addition, the “inhibition of AC2” value in [6] was “only to a modest degree”.

Consider `Nc1nc(F)nc2c1ncn2[C@@H]1O[C@H](CO)[C@@H](O)[C@@H]1O` [fludarabine], for which the “adverse effects in patients” value in [20] was “severe adverse effects including bone marrow suppression”.
